Among the data in PubChem BioAssay (NCI) are TGI and GI50 values, retold here.

Some test systems named below: HL-60(TB) leukemia; SF-295 CNS; A498 renal; MCF7 breast; RXF 393 renal; HCC-2998 colon; SNB-19 CNS; A549 NSCLC; 786-0 renal; HCT-15 colon.
Test in all cases: NCI anticancer screen, dose series, 48 h

Structures are written as SMILES. Where “and” joins values, the source holds several entries; their conditions need not be identical. Identical values can stand only once.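 Exposure lasted 48 hours, with cells grown in 96-well plates and compounds tested at five concentrations. GI50 = concentration required for 50% inhibition of growth. TGI denotes the concentration required for complete inhibition of growth.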 Some results are limits rather than exact numbers.

In the case of `COC(=O)C1(C)CC2C(C)(CCC3(C)C4=CC=C5C(=CC(=O)C(O)=C5C)C4(C)CCC23C)CC1O` (stereo unspecified), the TGI stood at 0.771 µM in the assay on HL-60(TB) leukemia; 3.43 µM in the assay on SF-295 CNS; 3.51 µM with A498 renal; 2.86 µM in the assay on MCF7 breast; 1.37 µM with RXF 393 renal; 2.9 µM in the assay with HCC-2998 colon. For the same molecule, the values for the TGI with SNB-19 CNS, with A549 NSCLC and in the assay on 786-0 renal were 2.81 µM, 4.94 µM and 0.477 µM, respectively.

As to `Nc1cc(C(F)(F)F)c(-c2cc(N3CCOCC3)nc(N3CCOCC3)n2)cn1`, the GI50 is 0.615 µM and 0.455 µM in the assay with HL-60(TB) leukemia; 0.523 µM and 0.826 µM with HCT-15 colon; 0.463 µM and 0.613 µM in the assay with SF-295 CNS; 0.189 µM and 0.205 µM in the assay on A498 renal; 0.228 µM and 0.257 µM with MCF7 breast; 0.561 µM and 0.65 µM in the assay with RXF 393 renal. The GI50 in the assay with HCC-2998 colon is 0.85 µM and 1.12 µM; in the assay on SNB-19 CNS, 2.28 µM and 2.71 µM; in the assay on A549 NSCLC, 1.17 µM and 1.29 µM; in the assay with 786-0 renal, 1.65 µM and 2.1 µM. Besides, the TGI with HL-60(TB) leukemia is 5.45 µM and 9.35 µM; with HCT-15 colon, greater than 41.1 µM; in the assay with SF-295 CNS, 2.51 µM and 4.26 µM; in the assay with A498 renal it was 0.713 µM and 1.09 µM; in the assay on MCF7 breast, > 10 µM and 4.05 µM; with RXF 393 renal, 2.83 µM and 3.26 µM. Moreover, the TGI was 4.14 µM and 5.45 µM with HCC-2998 colon; greater than 100 µM in the assay with SNB-19 CNS; 7.06 µM and 4.99 µM with A549 NSCLC; 9.77 µM and 8.63 µM with 786-0 renal.

Consider `OCc1ccc(N2CCc3cc(F)ccc3C2)cc1Cl`, for which the GI50 in the assay with HL-60(TB) leukemia was 1.64 µM; with HCT-15 colon, 3.98 µM; in the assay on SF-295 CNS it was 0.0449 µM; in the assay with A498 renal it was 0.0206 µM; with MCF7 breast, 0.0771 µM; in the assay with RXF 393 renal, 0.993 µM. Further, the GI50 is 1.58 µM in the assay on HCC-2998 colon, 13.2 µM with SNB-19 CNS, 0.389 µM in the assay on A549 NSCLC and 8.64 µM in the assay with 786-0 renal. For the same molecule, the TGI came out at 29.1 µM in the assay on HL-60(TB) leukemia; 21.2 µM in the assay with HCT-15 colon; 13.9 µM in the assay with SF-295 CNS; 0.0756 µM in the assay on A498 renal; 13.3 µM with MCF7 breast; 17.5 µM in the assay on RXF 393 renal. The TGI in the assay on HCC-2998 colon was found to be 12.8 µM; with SNB-19 CNS, 26.3 µM; in the assay with A549 NSCLC, 14.5 µM; in the assay on 786-0 renal it was 22.7 µM.

On to `Cc1ccc(Cl)cc1NC(=O)c1cc2ccccc2cc1O`, for which the GI50 is 0.267 µM with HL-60(TB) leukemia; 0.506 µM in the assay on HCT-15 colon; 1.14 µM in the assay on SF-295 CNS; 0.369 µM in the assay with A498 renal; 1.35 µM in the assay with MCF7 breast; 0.55 µM in the assay with RXF 393 renal. For the same molecule, the GI50 in the assay on HCC-2998 colon was 0.692 µM; in the assay with SNB-19 CNS it was 0.442 µM; with A549 NSCLC it was 0.418 µM; in the assay on 786-0 renal, 0.507 µM. The TGI was determined as 0.768 µM in the assay with HL-60(TB) leukemia; 3.57 µM in the assay with SF-295 CNS; 1.04 µM with A498 renal; 4.88 µM in the assay on MCF7 breast; 2.23 µM in the assay on RXF 393 renal; 2.47 µM with HCC-2998 colon. Further, the figures for the TGI in the assay on SNB-19 CNS, in the assay with A549 NSCLC and in the assay with 786-0 renal were greater than 40.1 µM, greater than 100 µM and 1.94 µM, respectively.

Regarding `CN(C)C=NC1CCC(C(C)(C)C)CC1` (stereo unspecified), the TGI in the assay with HL-60(TB) leukemia was 33.2 µM; in the assay with HCT-15 colon, 32.8 µM; in the assay with SF-295 CNS it was 31.2 µM; with A498 renal, 49.6 µM; in the assay with MCF7 breast, greater than 100 µM; in the assay on RXF 393 renal it was 45.6 µM. The TGI with HCC-2998 colon amounted to 27.9 µM; in the assay on SNB-19 CNS it was 39.9 µM; in the assay with A549 NSCLC, 38.9 µM; in the assay on 786-0 renal it was 33.3 µM.

On to `O=C(COc1ccc(OCC(=O)N2C(=O)CN(c3ccccc3)C2=S)cc1)N1C(=O)CN(c2ccccc2)C1=S`, for which the TGI in the assay with HL-60(TB) leukemia, with HCT-15 colon, in the assay on SF-295 CNS, in the assay with A498 renal, in the assay on MCF7 breast and in the assay on RXF 393 renal was greater than 100 µM throughout. For the same molecule, the TGI in the assay with HCC-2998 colon, with SNB-19 CNS, in the assay with A549 NSCLC and with 786-0 renal was greater than 100 µM each time. The GI50 in the assay with HCT-15 colon, in the assay on SF-295 CNS, with A498 renal, with RXF 393 renal, in the assay on HCC-2998 colon and with SNB-19 CNS was greater than 25 µM each time. In addition, the GI50 in the assay with A549 NSCLC and with 786-0 renal was greater than 25 µM in each case.

As for `CCCCCCCCCCCCCCCCCCOc1ccccc1CC(=O)OCC[N+](CC)(CC)CC`, the GI50 in the assay with HL-60(TB) leukemia was 0.926 µM; in the assay with HCT-15 colon, 4.39 µM; in the assay on SF-295 CNS, 1.27 µM; with A498 renal, 2.13 µM; in the assay with MCF7 breast, 1.35 µM; in the assay on RXF 393 renal it was 0.924 µM. The GI50 is 1.22 µM with HCC-2998 colon, 1.52 µM in the assay on SNB-19 CNS, 1.44 µM in the assay on A549 NSCLC and 1.64 µM in the assay on 786-0 renal. In addition, the TGI in the assay with HL-60(TB) leukemia stood at 2.78 µM; in the assay on HCT-15 colon it was 13.1 µM; with SF-295 CNS, 5.11 µM; in the assay on A498 renal it was 8.49 µM; in the assay on MCF7 breast, 5.25 µM; in the assay on RXF 393 renal, 2.06 µM. The TGI in the assay with HCC-2998 colon was 3.9 µM; with SNB-19 CNS, 5.6 µM; in the assay on A549 NSCLC, 7.42 µM; in the assay on 786-0 renal, 7.54 µM.

With `O=C1c2ccccc2C(=O)c2c1ccc1c(=O)n(-c3ccccc3C(F)(F)F)nnc21`, the GI50 with HL-60(TB) leukemia is 1.76 µM; with SF-295 CNS, 2.59 µM; with A498 renal, 1.76 µM; in the assay on MCF7 breast it was 1.86 µM; with RXF 393 renal, 2.15 µM; in the assay on HCC-2998 colon it was 2.45 µM. The GI50 is 2.68 µM with SNB-19 CNS and 4.09 µM with 786-0 renal. Further, the TGI was determined as 5.48 µM in the assay on HL-60(TB) leukemia; 7.02 µM in the assay on SF-295 CNS; 3.65 µM with A498 renal; 4.64 µM in the assay with MCF7 breast; 4.87 µM in the assay with RXF 393 renal; 6.16 µM with HCC-2998 colon. In addition, the TGI is 31.2 µM in the assay with SNB-19 CNS and greater than 100 µM in the assay with 786-0 renal.

For `C[C@H](CS)C(=O)N1c2ccccc2C[C@H]1C(=O)O`, the TGI in the assay on HL-60(TB) leukemia, with HCT-15 colon, in the assay with SF-295 CNS, with A498 renal, with MCF7 breast and with HCC-2998 colon was greater than 100 µM throughout. The TGI in the assay on SNB-19 CNS, with A549 NSCLC and in the assay with 786-0 renal was greater than 100 µM each time.
